Measured values reported in publication PMC9511441, “Semisynthetic teicoplanin derivatives with dual antimicrobial activity against SARS-CoV-2 and multiresistant bacteria” (Scientific Reports, 2022).
In brackets after ≈: the same amount, converted by molar mass. Where two headings read alike, the source gives them in different places.

Columns and labels:
[1] = test system: VeroE6 cells; assay: Cytotoxicity in mock-infected VeroE6 cells (XTT); format: cell-based, African green monkey; conditions: mock-infected Vero E6 cells, three days, XTT
[2] = target: T1, human recombinant cathepsin L (Homo sapiens, UniProt P07711); assay: biochemical; format: biochemical; conditions: read-out: Cathepsin L IC50; pH 5.5, Z-Phe-Arg-AMC substrate
T1 construct: made in house; host or cells: Escherichia coli
T1 sequence (P07711 114-333): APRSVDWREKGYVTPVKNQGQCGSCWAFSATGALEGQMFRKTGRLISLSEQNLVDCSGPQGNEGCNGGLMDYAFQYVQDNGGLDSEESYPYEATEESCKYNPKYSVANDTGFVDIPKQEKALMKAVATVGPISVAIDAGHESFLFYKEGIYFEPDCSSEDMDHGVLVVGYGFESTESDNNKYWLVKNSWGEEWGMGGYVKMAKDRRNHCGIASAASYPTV
Experimental: Cathepsin L inhibition was assessed as reported. Briefly, human recombinant cathepsin L was expressed in Escherichia coli[33]. Enzymatic activity was determined in 100 mM acetate buffer (pH 5.5) containing 0.1% PEG 8000, 5 mM cysteine and 1.5 mM EDTA. The enzyme was first activated in assay buffer for 5 min at 37 °C, after which it was added to the wells of a black microplate containing the Z-Phe-Arg-AMC substrate (Bachem) and compounds. Formation of the fluorescent cleavage product was monitored for 50 min at 37 °C, using a Tecan Infinit M1000 spectrofluorimeter set at 460 nm emission and 380 nm excitation wavelength. All assay mixtures contained 5% (v/v) DMSO and 0.01% Triton X-100 to prevent false-positive inhibition due to formation of compound aggregates. All measurements were performed in triplicate and repeated twice. The relative inhibition was calculated using the equation: Relative inhibition (%) = 100(1 − vi/vo), where vi and vo designate the reaction velocities in the presence and absence of inhibitor, respectively. IC50 values were determined from nine data points at different inhibitor concentrations.

[3] = test system: E. faecium; assay: microbe, parasite or virus in culture; format: cell-based; conditions: Enterococcus faecium
[4] = test system: S. epidermidis; assay: microbe, parasite or virus in culture; format: cell-based; conditions: Staphylococcus epidermidis
[5] = test system: HEL cells; assay: Cytotoxicity in mock-infected HEL cells (MTS); format: cell-based, human; conditions: mock-infected HEL cells, MTS, mean of 2–3 tests
[6] = test system: a panel of bacteria including MRSA; parameters: method as in PMID 32652783; conditions: earlier work; cited from earlier work
[7] = test system: S. aureus; assay: MIC, broth microdilution; format: cell-based; conditions: Staphylococcus aureus
[8] = test system: E. faecalis; assay: MIC, broth microdilution; format: cell-based; conditions: Enterococcus faecalis
[9] = test system: S.pyogenes; assay: MIC, broth microdilution; format: cell-based; conditions: Streptococcus pyogenes
[10] = test system: S. haemolyticus; assay: MIC, broth microdilution; format: cell-based; conditions: Staphylococcus haemolyticus
[11] = test system: HCoV-229E; conditions: earlier work; read-out: EC50 against human coronavirus 229E (HCoV-229E); cited from earlier work

CC(=O)N[C@H]1[C@H](O[C@@H]2c3ccc(c(Cl)c3)Oc3cc4cc(c3O)Oc3ccc(cc3Cl)C[C@H]3NC(=O)[C@H](n5cc(COCCOCCCC(F)(F)C(F)(F)C(F)(F)C(F)(F)F)nn5)c5ccc(O)c(c5)Oc5cc(O)cc(c5)[C@H](NC3=O)C(=O)N[C@H]4C(=O)N[C@H]3C(=O)N[C@@H]2C(=O)N[C@H](C(=O)O)c2cc(O)cc(O)c2-c2cc3ccc2O)O[C@H](CO)[C@@H](O)[C@@H]1O [Compound 2]
CC50 [1]: > 100 µM | IC50 [2]: 98 ± 1 µM | MIC ([3]; read-out: Average MIC value, E. faecium VAN^R,TEI^R/VanA, 8 strains): > 8 µg/mL | MIC ([3]; read-out: Average MIC value, E. faecium VAN^S, TEI^S, 1 strain): 1 µg/mL (≈ 0.559 µM) | MIC ([3]; read-out: MIC value, E.faecium E335, VAN,TEI,LNZ/VanA): > 8 µg/mL | MIC ([3]; read-out: MIC value, E.faecium E355, VAN,TEI,LNZ/VanA): > 8 µg/mL | MIC ([3]; read-out: MIC value, E.faecium E832, VAN,TEI,LNZ/VanA): > 8 µg/mL | MIC ([3]; read-out: MIC value, E.faecium E854, VAN,TEI,LNZ/VanA): > 8 µg/mL | MIC ([3]; read-out: MIC value, E.faecium E859, VAN,TEI,LNZ/VanA): > 8 µg/mL | MIC ([3]; read-out: MIC value, E.faecium E1114, VAN,TEI,LNZ/VanA): > 8 µg/mL | MIC ([3]; read-out: MIC value, E.faecium E1131, VAN,TEI,LNZ/VanA): > 8 µg/mL | MIC ([3]; read-out: MIC value, E.faecium E1132, VAN,TEI,LNZ/VanA): > 8 µg/mL | MIC ([3]; read-out: MIC value, E.faecium TX0016): 1 µg/mL (≈ 0.559 µM) | MIC ([4]; read-out: Average MIC value, S. epidermidis mecA, 6 strains): 0.645 µg/mL (≈ 0.361 µM) | MIC ([4]; read-out: MIC value, S.epidermidis ORI_R1, mecA): 0.5 µg/mL (≈ 0.28 µM) | MIC ([4]; read-out: MIC value, S.epidermidis ORI_R2, mecA): 0.5 µg/mL (≈ 0.28 µM) | MIC ([4]; read-out: MIC value, S.epidermidis ORI_R3, mecA): 0.25 µg/mL (≈ 0.14 µM) | MIC ([4]; read-out: MIC value, S.epidermidis ORI_R4, mecA): 0.5 µg/mL (≈ 0.28 µM) | MIC ([4]; read-out: MIC value, S.epidermidis TEI_R1, mecA): 0.125 µg/mL (≈ 0.0699 µM) | MIC ([4]; read-out: MIC value, S.epidermidis TEI_R2, mecA): 2 µg/mL (≈ 1.12 µM) | CC50 [5]: > 100 µM | MIC against a panel of bacteria including MRSA [6]: 0.5 to 1 µM | MIC ([7]; ATCC 29213 / MSSA, read-out: MIC value, S. aureus ATCC29213, MSSA): 0.0625 µg/mL (≈ 0.0349 µM) | MIC ([7]; MRSA / USA300, read-out: MIC value, S. aureus USA300, CA-MRSA): 0.25 µg/mL (≈ 0.14 µM) | MIC ([7]; MRSA, read-out: Average MIC value, S. aureus CA-MRSA, 1 strain): 0.25 µg/mL (≈ 0.14 µM) | MIC ([7]; MRSA, read-out: Average MIC value, S. aureus MRSA, 7 strains): 0.285 µg/mL (≈ 0.159 µM) | MIC ([7]; MRSA, read-out: MIC value, S. aureus 73OL, MRSA): 0.25 µg/mL (≈ 0.14 µM) | MIC ([7]; MRSA, read-out: MIC value, S. aureus 214OL, MRSA): 0.25 µg/mL (≈ 0.14 µM) | MIC ([7]; MRSA, read-out: MIC value, S. aureus 1041OL, MRSA): 0.25 µg/mL (≈ 0.14 µM) | MIC ([7]; MRSA, read-out: MIC value, S. aureus A6918, MRSA): 0.5 µg/mL (≈ 0.28 µM) | MIC ([7]; MRSA, read-out: MIC value, S. aureus A6919, MRSA): 0.25 µg/mL (≈ 0.14 µM) | MIC ([7]; MRSA, read-out: MIC value, S. aureus Mu50, MRSA): 0.25 µg/mL (≈ 0.14 µM) | MIC ([7]; MRSA, read-out: MIC value, S. aureus N315, MRSA): 0.25 µg/mL (≈ 0.14 µM) | MIC ([7]; MSSA / NEWMAN, read-out: MIC value, S. aureus Newman, MSSA): 0.5 µg/mL (≈ 0.28 µM) | MIC ([7]; MSSA, read-out: Average MIC value, S. aureus MSSA, 4 strains): 0.265 µg/mL (≈ 0.148 µM) | MIC ([7]; MSSA, read-out: MIC value, S. aureus MSSA476, MSSA): 0.25 µg/mL (≈ 0.14 µM) | MIC ([7]; MSSA, read-out: MIC value, S. aureus SA564, MSSA): 0.25 µg/mL (≈ 0.14 µM) | MIC ([8]; read-out: Average MIC value, E. faecalis VAN^R,TEI^R/VanA, 1 strain): > 8 µg/mL | MIC ([8]; read-out: Average MIC value, E. faecalis VAN^S, TEI^S, 2 strains): 1 µg/mL (≈ 0.559 µM) | MIC ([8]; read-out: MIC value, E.faecalis JH2-2): 1 µg/mL (≈ 0.559 µM) | MIC ([8]; read-out: MIC value, E.faecalis OG1RF): 1 µg/mL (≈ 0.559 µM) | MIC ([8]; read-out: MIC value, E.faecalis V583, VAN,TEI/VanA): > 8 µg/mL | MIC ([9]; read-out: MIC value, S.pyogenes H232): 0.0625 µg/mL (≈ 0.0349 µM) | MIC ([9]; read-out: MIC value, S.pyogenes H550): 0.0625 µg/mL (≈ 0.0349 µM) | MIC ([9]; read-out: MIC value, S.pyogenes H578): 0.0625 µg/mL (≈ 0.0349 µM) | MIC ([10]; S. haemolyticus mecA, 6 strains, read-out: Average MIC value): 1.9 µg/mL (≈ 1.06 µM) | MIC ([10]; S.haemolyticus DALB_R1, mecA, read-out: MIC value): 4 µg/mL (≈ 2.24 µM) | MIC ([10]; S.haemolyticus DALB_R2, mecA, read-out: MIC value): 2 µg/mL (≈ 1.12 µM) | MIC ([10]; S.haemolyticus DALB_R3, mecA, read-out: MIC value): 2 µg/mL (≈ 1.12 µM) | MIC ([10]; S.haemolyticus DALB_R4, mecA, read-out: MIC value): 2 µg/mL (≈ 1.12 µM) | MIC ([10]; S.haemolyticus DALB_R5, mecA, read-out: MIC value): 0.5 µg/mL (≈ 0.28 µM) | MIC ([10]; S.haemolyticus ORI_R1, mecA, read-out: MIC value): 1 µg/mL (≈ 0.559 µM) | EC50 [11]: > 100 µM
